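96-well plates; 48 h exposure; 5 concentrations. Endpoints by linear interpolation between flanking doses. Not reached: highest tested concentration assigned. GI50: concentration for 50% inhibition of growth. The concentration for full growth arrest is given as TGI.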 Some results are limits rather than exact numbers.

The record followed here is PubChem BioAssay (NCI).

What all share (experiment): NCI tumour cell line growth inhibition, 48 h
For assay [1], the system named is NCI/ADR-RES ovarian.
Assay [2] deals with HT29 colon.
For assay [3], the system named is OVCAR-8 ovarian.
In assay [4] the test system is SF-268 CNS.
Assay [5] deals with MDA-MB-435.
The test system of assay [6] is NCI-H226 lung.
Assay [7] deals with KM12 colon.
Assay [8] deals with CCRF-CEM leukemia.
Assay [9] has as its system SR leukemia.
The subject of assay [10] is SNB-75 CNS.

`COc1ccc(C2=Nc3cc(C)c(C)cc3NC(c3ccccc3)C2)cc1` (centres undefined): the TGI in assay [1], in [2], in assay [3], in [4], in assay [5] and in [6] was > 100 µM throughout. The TGI in assay [7] was > 100 µM; in [8] it was > 100 µM; in assay [9], 54.5 µM.

Take `C=C1C(O)C2C(=C(CC)C13CC3)C(=O)C(C)(C)C2OC` (centres undefined): the GI50 in assay [1] was 92.7 µM; in assay [2] it was > 100 µM; in assay [3], 53.1 µM; in [4], > 100 µM; in assay [5] it was > 100 µM; in assay [7] it was 60.9 µM. Also, the GI50 in [8] was 27.5 µM; in assay [9] it was 23.5 µM. Besides, the TGI in assay [1], in [2], in assay [3], in [4], in assay [5] and in assay [7] was > 100 µM each time. For the same molecule, the TGI in [8] was > 100 µM; in [9], 68 µM.

On to `COc1ccc2c(CN3CCCC[C@H]3C(=O)O)cc3cc4c(cc3c2c1)OCO4`, for which the GI50 was 7.11 µM in [1]; 0.374 µM in assay [2]; 0.457 µM in assay [3]; 0.175 µM in [4]; 1.05 µM in [5]; 1.42 µM in assay [6]. Moreover, the GI50 in assay [7] is 3.69 µM; in [10] it was 0.397 µM; in [8], 2.94 µM. Besides, the TGI in assay [1] amounted to 65.7 µM; in assay [2] it was 1.85 µM; in assay [3], 11.7 µM; in assay [4], 1.39 µM; in [5], 4.09 µM; in assay [6], 3.13 µM. Further, the TGI in assay [7] was 52.5 µM; in assay [10], 2.28 µM; in assay [8], 13.5 µM.

On to `CC(=O)N1CC(C)(C)c2c(C)c(O)c(C)c(C)c21`, for which the TGI in assay [1], in [2], in assay [3], in [4], in assay [5] and in assay [6] was > 100 µM each time. Besides, the TGI in [7], in assay [10] and in [8] was > 100 µM throughout.

`O=C1CCCCCCCCCCC1CN1CCCC1` (centres undefined): the TGI is > 100 µM in [1]; 77.1 µM in assay [2]; > 100 µM in [3]; > 100 µM in assay [4]; > 100 µM in assay [5]; > 100 µM in assay [6]. The TGI in assay [7], in assay [10] and in assay [8] was > 100 µM throughout.

On to `COc1cc2c(cc1OC)[C@H](C)N1CCc3cc(OC)c(OC)cc3[C@@H]1C2`, for which the TGI in [1], in [2], in assay [3], in assay [4], in assay [5] and in assay [6] was > 100 µM throughout. Besides, the TGI in [7], in [10] and in [8] was > 100 µM throughout.

`CCOC(=O)CCC(NC(=O)OCc1ccccc1)C(=O)NC(CCC(=O)OCC)C(=O)NC(CCC(=O)OCC)C(=O)NC(CCC(=O)OCC)C(=O)NC(CCC(=O)OCC)C(=O)NC(CCC(=O)OCC)C(=O)NC(CCC(=O)OCC)C(=O)OCC` (centres undefined): the TGI in assay [2], in assay [3], in [4], in [5], in [6] and in assay [10] was > 100 µM in each case. Further, the TGI in assay [8] and in [9] was > 100 µM throughout.

Turning to `C/C(=N/NC(=S)N1CCCCC1)c1ccccc1O`, the TGI in assay [1], in assay [2], in [3], in [4], in assay [5] and in assay [6] was > 31.6 µM in each case. Further, the TGI in [7] and in assay [8] was > 31.6 µM each time.

For `O=C1Nc2ccc(Br)cc2C1=Nc1cccnc1`, the TGI was 87.1 µM in [1]; 51.3 µM in assay [2]; 51.7 µM in assay [3]; 71.8 µM in assay [4]; 28.9 µM in assay [5]; > 100 µM in [6]. Moreover, the TGI in assay [7] was 99.3 µM; in assay [10] it was > 100 µM; in assay [8] it was 57.4 µM.

For `COc1cc(OC)c(C/C=C/c2ccccc2)cc1O`, the TGI was 31.4 µM in assay [1]; 31.5 µM in [2]; 32.8 µM in assay [3]; 34.4 µM in assay [4]; 30.7 µM in [5]; 33.8 µM in assay [6]. Besides, the results for the TGI in assay [7], in assay [10] and in [8] were 31.5 µM, 33.9 µM and 51.6 µM, respectively.
